Source: patent US5064853A, “4(2-indolyl)2-amino-pentanedioic acids and cholecyostokinin use thereof” (Roussel Uclaf, priority 1989, dated 1991)

Tests used:
Peripheral CCK receptors = target: T1, Peripheral CCK receptors (Rattus norvegicus, UniProt P30551); assay: Peripheral receptors: 3H CCK8 binding to rat pancreas homogenate; conditions: 3H CCK8, 25° C., 60 minutes, read-out: Peripheral CCK IC50: concentration necessary to inhibit the fixed specific radioactivity by 50%
T1 construct: The pancreases of 3 male rats weighing 150-200 g were removed and ground with a Polytron; from tissue; host or cells: rat pancreas membrane homogenate
T1 sequence (P30551 1-444): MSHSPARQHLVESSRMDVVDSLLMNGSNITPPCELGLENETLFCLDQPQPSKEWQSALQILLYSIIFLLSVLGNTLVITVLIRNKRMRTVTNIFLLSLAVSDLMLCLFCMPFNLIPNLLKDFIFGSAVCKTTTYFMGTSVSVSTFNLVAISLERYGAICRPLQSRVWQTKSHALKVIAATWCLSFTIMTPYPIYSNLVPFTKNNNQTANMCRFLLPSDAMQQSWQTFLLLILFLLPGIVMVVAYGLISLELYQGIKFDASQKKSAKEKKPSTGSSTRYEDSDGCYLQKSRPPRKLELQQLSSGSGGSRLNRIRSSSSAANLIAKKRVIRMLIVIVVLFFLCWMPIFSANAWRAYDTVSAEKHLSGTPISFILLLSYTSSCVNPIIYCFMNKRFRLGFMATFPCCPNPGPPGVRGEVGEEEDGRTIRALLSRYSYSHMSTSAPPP
Method: The pancreases of 3 male rats weighing 150-200 g were removed and ground with a Polytron (4 grindings, speed 3, with an interval of 10 seconds between grindings) and the homogenate was filtered over a gauze, then centrifuged at 30,000 g for 30 minutes. The residue obtained was taken up in 400 volumes (.perspectiveto.600 ml) of Tris 50 mM HCl buffer, pH 7.4, containing 2 g/liter of BSA, 0.1 mM of bacitracin, 5 mM of MgCl2 and 5 mM of dithiothreitol. 2 ml of homogenate aliquots were incubated at 25° C. for 60 minutes in the presence of […] 3H CCK8 and the product to be tested (10,000 micromoles for 1 dose or with a range of 7 doses) and cold CCK8 (10^-6 M) which was the reference product. After returning to 0° C., the aliquots were filtered with Whatman GF/B filters having been previously washed in a 0.05% solution of polyethyleneimine. The filtrate was washed with 3×5 ml of Tris HCl 50 mM buffer, pH 7.4. The results are expressed in IC50 : concentration necessary to inhibit the fixed specific radioactivity by 50%. (IC50 in nanomoles).

[1] = system: alimentary intake of a rat; assay: Action on the alimentary intake of a rat; type: in vivo; conditions: 10 mg/kg intra-peritoneally, consumption monitored every hour for 5 hours
Method: The tests were carried out on groups of 5 rats weighing 250±10 g under the following conditions: the animals were placed individually in cages having a feeding trough described by FREGLY (J. Appln. Physiol., 1960, Vol. 15, p. 539) which had the advantage of avoiding the wastage of food presented when using powdered fodder. The rats were accustomed to taking their daily ration over 5 consecutive hours, drinking water being offered ad libitum. The amounts of food ingested were determined individually by weighing the feeding troughs and the consumptions were monitored every hour for 5 hours after the administration of 10 mg/kg of the compound intra-peritoneally. The amounts consumed were expressed in g/100 g of body weight per hour and the averages were compared with those obtained from the control animals by a DUNNET test.

Central CCK receptors = target: T2, Central CCK receptors (Rattus norvegicus, UniProt P30553); assay: Central receptors: 3H CCK8 binding to rat cortex homogenate; conditions: 0.5 nM 3H CCK8, 25° C., 30 minutes, read-out: Central CCK IC50: concentration necessary to inhibit the fixed specific radioactivity by 50%
T2 construct: The cortices of 20 male rats weighing 150 to 200 g were removed and were ground up with a Polytron; from tissue; host or cells: rat cerebral cortex membrane homogenate
T2 sequence (P30553 1-452): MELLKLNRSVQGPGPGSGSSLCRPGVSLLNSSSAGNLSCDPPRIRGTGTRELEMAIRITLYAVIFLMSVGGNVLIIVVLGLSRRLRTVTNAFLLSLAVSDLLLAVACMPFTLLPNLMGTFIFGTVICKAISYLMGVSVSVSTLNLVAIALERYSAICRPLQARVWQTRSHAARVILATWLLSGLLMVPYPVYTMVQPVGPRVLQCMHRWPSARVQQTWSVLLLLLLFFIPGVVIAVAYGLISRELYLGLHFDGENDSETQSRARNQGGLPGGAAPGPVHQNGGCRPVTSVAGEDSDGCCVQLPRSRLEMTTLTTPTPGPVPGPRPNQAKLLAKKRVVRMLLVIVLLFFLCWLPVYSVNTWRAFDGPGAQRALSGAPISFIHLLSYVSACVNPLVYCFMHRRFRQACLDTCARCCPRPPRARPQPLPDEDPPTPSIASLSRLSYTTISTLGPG
Method: The cortices of 20 male rats weighing 150 to 200 g were removed and were ground up with a Polytron in 0.32M sucrose. After centrifuging, the supernatant was collected and centrifuged. The residue was suspended in 120 ml of Hepes buffer, pH 7.4, (Hepes 10 mM, NaCl 130 mM, MgCl2, 6H2 O 5 mM, bacitracine 250 mg/liter, PMSF 1 mg/liter), and re-centrifuged. The residue was taken up in 120 ml of Hepes buffer pH 7.4, and recentrifuged at 30,000 g for 30 minutes. The residue was then taken up in 500 ml of Hepes buffer pH 7.4, which enabled 240 aliquots of 2 ml of homogenate to be obtained. The incubation was carried out at 25° C. for 30 minutes in the presence of 0.5 nM of 3H CCK8 and the product to be tested (10,000 micromoles for 1 dose, or with a range of 7 doses) or cold CCK8 (10^-6 M), which was the reference product. After the homogenate aliquots were returned to 0° C., they were filtered with Whatman GF/B filters and the filtrates were washed with 3×5 ml of a Tris HCl 50 mM buffer, pH 7.4. The results are expressed in IC50 : concentration necessary to inhibit the fixed specific radioactivity by 50% in the Table below.

Structure (SMILES) | IC50 (Peripheral CCK receptors) [nM] | reduction of alimentary consumption relative to control animals [1] | IC50 (Central CCK receptors) [nM]
Cc1ccc(C(NC(=O)[C@H](CCC(=O)O)NC(=O)c2cc3ccccc3[nH]2)c2ccc(C)cc2)cc1 [Example 2, (S)-4-[[(1H-indol-2-yl)-carbonyl]-amino]-5-[[bis-(4-methylphenyl)-methyl]-amino]-5-oxo pentanoic acid] | 53 | 15% | 700
O=C(O)CC[C@H](NC(=O)c1cc2ccccc2[nH]1)C(=O)NC(c1ccc(Cl)cc1)c1ccc(Cl)cc1 [Example 4, (S)-5-[[bis-(4-chlorophenyl)-methyl]-amino]-5-oxo-4-[[(1H-indol-2-yl)-carbonyl]-amino]-pentanoic acid] | 96 | – | 10000
COc1ccccc1C(NC(=O)[C@H](CCC(=O)O)NC(=O)c1cc2ccccc2[nH]1)c1ccccc1 (stereo partly drawn) [Example 9, (4S)-4-[[(1H-indol-2-yl)-carbonyl]-amino]-5-[[(2-methoxyphenyl)-benzyl]-amino]-5-oxo pentanoic acid] | 32 | more than 50% | 682
O=C(O)CC[C@H](NC(=O)c1cc2ccccc2[nH]1)C(=O)NC1c2ccccc2CCc2ccccc21 [Example 13, (S)-5-[(10,11-dihydro-dibenzo-[a,d]-cyclohepten-5-yl)-amino]-4-[[(1H-indol-2-yl)-carbonyl]-amino]-5-oxo pentanoic acid] | 1660 | – | 2660
